This passage reports IC50 results from patent US20100009956A1, “NOVEL SUBSTITUTED PYRIMIDINES AS CYSTEINE PROTEASE INHIBITORS” (Glaxo Group Limited , a corporation, priority 2006, published 2010).

Each structure is given as a SMILES string. Counter-ions that a name gives are not always drawn. Like-named read-outs stand apart in the source and are kept apart here. Bounds are passed on as bounds.

Holding throughout (type): biochemical
Test [1] addresses Cathepsin S (Homo sapiens, UniProt P25774). Put plainly: Cathepsin S enzymatic assay (assay 1). To be noted: human recombinant enzyme, KQKLR-AMC substrate, pH 6.5. How it is done: (§1) Assay 1) Determination of Falcipain-2, Falcipain-3, Vivapain-2, Cathepsin K Cathepsin S, Cathepsin L, and Cathepsin B Proteolytic Catalytic Activity
(§2) Assays for Falcipain-2, Falcipain-3, and Vivapain-2 are carried out with parasitic recombinant enzymes. Cathepsins K, S, L, and B are carried out with human recombinant enzymes. Standard assay conditions for the determination of kinetic constants used a fluorogenic peptide substrate, typically H-D-VLR-AFC (Falcipain-2, Falcipain-3, Vivapain-2), Z-FR-AFC (Cathepsin K, L, B), or KQKLR-AMC (Cathepsin S) and are determined in 100 mM sodium acetate, pH 5.5, containing 10 mM DTT and 0.5 mM CHAPS (Falcipain-2, Falcipain-3, Vivapain-2), and 100 mM sodium acetate, pH 5.5, containing 5 mM L-cysteine, 1 mM CHAPS and 5 mM EDTA (Cathepsin K, L, B), or 50 mM MES, pH 6.5, containing 0.5 mM CHAPS, 10 mM L-CYS, 5 mM EDTA (Cathepsin S). Stock substrate solutions are prepared at 20 mM in DMSO. The activity assays contained 30 uM substrate (Falcipain-2, Falcipain-3, Vivapain-2), 20 uM substrate (Cathepsin K), 25 uM substrate (Cathepsin B), 5 uM substrate (Cathepsin L), and 30 uM substrate (Cathepsin S). All assays contained 1% DMSO. […] All assays are conducted at ambient temperature as end point assays being quenched after 60 minutes with the exception of Cathepsin S at 90 minutes, with 16.6 uM E-64 in 1% DMSO. Product formation (AFC or AMC) is determined from fluorescence (excitation at 405 nm; emission at 530 nm, AFC, or excitation at 360 nm; emission at 460 nm, AMC) monitored with a LJL Aquest (Molecular Devices) fluorescent plate reader. In the case of kinetic reads (used in mechanism of action studies), the reaction is not quenched but is read in the plate reader every 3 minutes for approximately 90 minutes. In addition, the mechanism of action studies for Falcipain-2 utilize Z-LR-AMC as the substrate. Product formation is determined from the fluorescence of AMC, measured with a LJL Acquest (Molecular Devices) fluorescent plate reader (excitation at 360 nm; emission at 460 nm).
(§3) Potential inhibitors are evaluated using the quenched read (endpoint) method. Assays are carried out in the presence of variable concentrations of test compound. Reactions are initiated by addition of enzyme and substrate to wells containing inhibitor stamped in 100% DMSO. For endpoint assays, the reaction is quenched with the addition of E64. Dose response data is fit to an IC50 curve with preset fitting tools according to equation 1:
(§4) y=a+(b−a)/(1+(10^x/10^c)^d) (1)
(§5) where y is the response at a particular inhibitor concentration x, a is the minimum response value, b is the maximum response value, c is the IC50, and d is the slope of the IC50 curve. Assuming the compound is a competitive inhibitor, the apparent KI can be calculated from IC50, as shown in equation 2: […]

Test [2] has as its target Falcipain-2 (Plasmodium falciparum, UniProt Q8I6U4). The test is described as follows: Falcipain-2 enzymatic assay (assay 1). How it is done: as §1, §2, §3, §4, §5
Test [3] concerns the target Falcipain-3 (Plasmodium falciparum, UniProt Q8IIL0). Put plainly: Falcipain-3 enzymatic assay (assay 1). As to the method: as §1, §2, §3, §4, §5
In test [4] the target is T1, Cathepsin K (Homo sapiens, UniProt P43235).
T1 sequence (P43235 115-329): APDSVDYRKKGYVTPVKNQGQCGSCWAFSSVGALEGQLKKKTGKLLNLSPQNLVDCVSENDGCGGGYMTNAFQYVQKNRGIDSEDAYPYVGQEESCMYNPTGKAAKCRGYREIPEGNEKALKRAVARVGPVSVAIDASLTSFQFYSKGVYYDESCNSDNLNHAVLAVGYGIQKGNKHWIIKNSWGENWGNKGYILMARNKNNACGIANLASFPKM
Put plainly: Cathepsin K enzymatic assay (assay 1). The settings on record: human recombinant enzyme, Z-FR-AFC substrate, pH 5.5. As to the method: as §1, §2, §3, §4, §5

Setting [5] is: parasitic recombinant enzyme, H-D-VLR-AFC substrate, pH 5.5, endpoint read, read-out: Falcipain-3 IC50.

Sequence of Falcipain-3 (Q8IIL0 243-492): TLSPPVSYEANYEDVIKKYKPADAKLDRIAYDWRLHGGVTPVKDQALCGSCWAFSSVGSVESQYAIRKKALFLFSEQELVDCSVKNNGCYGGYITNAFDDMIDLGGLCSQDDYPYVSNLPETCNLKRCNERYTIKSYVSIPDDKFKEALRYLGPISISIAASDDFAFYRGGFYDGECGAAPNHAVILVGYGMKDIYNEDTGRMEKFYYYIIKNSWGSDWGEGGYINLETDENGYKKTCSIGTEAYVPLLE
Sequence of Cathepsin S (P25774 115-331): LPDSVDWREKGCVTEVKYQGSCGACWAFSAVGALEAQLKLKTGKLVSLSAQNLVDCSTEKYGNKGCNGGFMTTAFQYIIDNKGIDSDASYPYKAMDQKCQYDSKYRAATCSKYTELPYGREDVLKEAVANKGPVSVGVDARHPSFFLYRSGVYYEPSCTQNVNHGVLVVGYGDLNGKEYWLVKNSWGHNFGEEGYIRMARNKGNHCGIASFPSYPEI
Sequence of Falcipain-2 (Q8I6U4 244-484): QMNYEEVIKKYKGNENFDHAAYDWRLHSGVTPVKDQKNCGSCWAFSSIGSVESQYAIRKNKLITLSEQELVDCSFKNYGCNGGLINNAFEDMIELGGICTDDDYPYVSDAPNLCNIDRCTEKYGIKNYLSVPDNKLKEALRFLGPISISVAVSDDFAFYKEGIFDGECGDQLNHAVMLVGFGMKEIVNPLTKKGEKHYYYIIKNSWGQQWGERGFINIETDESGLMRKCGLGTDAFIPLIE

Regarding `CCCCCCN(C)Cc1ccc(C(=O)NN(c2nc(C#N)ncc2Cl)C2CCCC2)cc1` [Example 56, N′-(5-chloro-2-cyano-4-pyrimidinyl)-N′-cyclopentyl-4-{([hexyl(methyl)amino]methyl}benzohydrazide trifluoroacetate], the IC50 (usually the concentration that gives 50% inhibition) is less than 200 nM in test [1], less than 1 nM in test [2] and 2.5 to 15 nM in test [3].

For `CN1CCN(c2ccc(C(=O)NN(c3nc(C#N)ncc3Cl)C3CCCC3)cc2)CC1` [Example 52, N′-(5-chloro-2-cyano-4-pyrimidinyl)-N′-cyclopentyl-4-(4-methyl-1-piperazinyl)benzohydrazide trifluoroacetate], the figures for the IC50 in test [1], in test [2] and in test [3] were less than 200 nM, less than 1 nM and 2.5 to 15 nM, respectively.

Take `CCCCN(C)Cc1ccc(C(=O)NN(c2nc(C#N)ncc2Cl)C2CCCC2)cc1` [Example 57, 4-{[butyl(methyl)amino]methyl}-N′-(5-chloro-2-cyano-4-pyrimidinyl)-N′-cyclopentylbenzohydrazide trifluoroacetate]: the IC50 in test [1] was less than 200 nM; in test [2] it was less than 1 nM; in test [3], 2.5 to 15 nM.

Take `CC(=O)N1CCC(N(NC(=O)c2ccc(CN3CCC(N4CCN(C)CC4)CC3)cc2)c2nc(C#N)ncc2Br)CC1` [Example 38, N′-(1-acetyl-4-piperidinyl)-N′-(5-bromo-2-cyano-4-pyrimidinyl)-4-{[4-(4-methyl-1-piperazinyl)-1-piperidinyl]methyl}benzohydrazide trifluoroacetate]: the results for the IC50 in test [1], in test [2] and in test [3] (setting [5]) were less than 200 nM, less than 1 nM and 2.5 to 15 nM, respectively.

As for `CN(CCC1OCCO1)Cc1ccc(C(=O)NN(c2nc(C#N)ncc2Cl)C2CCCC2)cc1` [Example 61, N′-(5-chloro-2-cyano-4-pyrimidinyl)-N′-cyclopentyl-4-{[[2-(1,3-dioxolan-2-yl)ethyl](methyl)amino]methyl}benzohydrazide trifluoroacetate], the IC50 in test [1] is less than 200 nM; in test [2] it was less than 1 nM; in test [3], 2.5 to 15 nM.

With `CCCN(C)Cc1ccc(C(=O)NN(c2nc(C#N)ncc2Cl)C2CCCC2)cc1` [Example 55, N′-(5-chloro-2-cyano-4-pyrimidinyl)-N′-cyclopentyl-4-{[methyl(propyl)amino]methyl}benzohydrazide trifluoroacetate], the results for the half-maximal inhibitory concentration (IC50) in test [1], in test [2] and in test [3] were less than 200 nM, less than 1 nM and 2.5 to 15 nM, respectively.

On to `CCN(CCCNC(=O)OC(C)(C)C)Cc1ccc(C(=O)NN(c2nc(C#N)ncc2Cl)C2CCCC2)cc1` [Example 81, 1,1-dimethylethyl{3-[[(4-{[2-(5-chloro-2-cyano-4-pyrimidinyl)-2-cyclopentylhydrazino]carbonyl}phenyl)methyl](ethyl)amino]propyl}carbamate], for which the values for the IC50 in test [1], in test [2] and in test [3] (setting [5]) were less than 200 nM, less than 1 nM and 2.5 to 15 nM, respectively.

As for `CN1CCC(CN2CCN(Cc3cccc(C(=O)NN(c4nc(C#N)ncc4Br)C4CCCCC4)c3)CC2)CC1` [Example 28, N′-(5-bromo-2-cyano-4-pyrimidinyl)-N′-cyclohexyl-3-({4-[(1-methyl-4-piperidinyl)methyl]-1-piperazinyl}methyl)benzohydrazide trifluoroacetate], the values for the IC50 in test [1], in test [2] and in test [3] were less than 1000 nM, less than 1 nM and 2.5 to 15 nM, respectively.

`CN(CC(=O)N(C)C)Cc1ccc(C(=O)NN(c2nc(C#N)ncc2Cl)C2CCCC2)cc1` [Example 60, N^2-[(4-{[2-(5-chloro-2-cyano-4-pyrimidinyl)-2-cyclopentylhydrazino]carbonyl}phenyl)methyl]-N^1,N^1,N^2-trimethylglycinamide trifluoroacetate]: the IC50 in test [1] was less than 200 nM; in test [2] it was less than 1 nM; in test [3], 2.5 to 15 nM.

For `CN(CCc1ccccc1)Cc1ccc(C(=O)NN(c2nc(C#N)ncc2Cl)C2CCCC2)cc1` [Example 62, N′-(5-chloro-2-cyano-4-pyrimidinyl)-N′-cyclopentyl-4-{[methyl(2-phenylethyl)amino]methyl}benzohydrazide trifluoroacetate], the IC50 in test [1] is less than 200 nM; in test [2], less than 1 nM; in test [3] it was 2.5 to 15 nM.

Take `CC(C)N(Cc1ccc(C(=O)NN(c2nc(C#N)ncc2Cl)C2CCCC2)cc1)C(C)C` [Example 72, 4-{[bis(1-methylethyl)amino]methyl}-N′-(5-chloro-2-cyano-4-pyrimidinyl)-N′-cyclopentylbenzohydrazide trifluoroacetate]: the figures for the IC50 in test [1], in test [2] and in test [3] were less than 200 nM, less than 1 nM and 2.5 to 15 nM, respectively.

`CN(Cc1ccc(C(=O)NN(c2nc(C#N)ncc2Cl)C2CCCC2)cc1)C1CCC2(CC1)OCC(C)(C)CO2` [Example 65, N′-(5-chloro-2-cyano-4-pyrimidinyl)-N′-cyclopentyl-4-{[(3,3-dimethyl-1,5-dioxaspiro[5.5]undec-9-yl)(methyl)amino]methyl}benzohydrazide trifluoroacetate]: the IC50 in test [1] is less than 200 nM; in test [2], 1 to 2.5 nM; in test [3], 2.5 to 15 nM.

As for `CN(C)Cc1ccc(C(=O)NN(c2nc(C#N)ncc2Cl)C2CCCC2)cc1` [Example 54, N′-(5-chloro-2-cyano-4-pyrimidinyl)-N′-cyclopentyl-4-[(dimethylamino)methyl]benzohydrazide trifluoroacetate], the IC50 in test [1] is less than 200 nM; in test [2] it was less than 1 nM; in test [3], 2.5 to 15 nM.

On to `CCN(CC)Cc1ccc(C(=O)NN(c2nc(C#N)ncc2Cl)C2CCCC2)cc1` [Example 66, N′-(5-chloro-2-cyano-4-pyrimidinyl)-N′-cyclopentyl-4-[(diethylamino)methyl]benzohydrazide trifluoroacetate], for which the IC50 in test [1] was less than 200 nM; in test [2] it was less than 1 nM; in test [3], 2.5 to 15 nM.

As for `CN(CCCc1ccccc1)Cc1ccc(C(=O)NN(c2nc(C#N)ncc2Cl)C2CCCC2)cc1` [Example 64, N′-(5-chloro-2-cyano-4-pyrimidinyl)-N′-cyclopentyl-4-{[methyl(3-phenylpropyl)amino]methyl}benzohydrazide trifluoroacetate], the IC50 was less than 200 nM in test [1], less than 1 nM in test [2] and 2.5 to 15 nM in test [3].

As to `C[C@@H]1CCC[C@H]1N(NC(=O)c1ccc(CN2CCN(C)CC2)cc1)c1nc(C#N)ncc1Br` [Example 3, N′-(5-bromo-2-cyano-4-pyrimidinyl)-N′-[(1R,2R+1S,2S)-2-methylcyclopentyl]-4-[(4-methyl-1-piperazinyl)methyl]benzohydrazide trifluoroacetate], the concentration for half-maximal inhibition (IC50) was less than 1 nM in test [2], less than 1.5 nM in test [4] and 2.5 to 15 nM in test [3].

As for `CN1CCN(C(=O)C2CCN(Cc3ccc(C(=O)NN(c4nc(C#N)ncc4Br)C4CCOCC4)cc3)CC2)CC1` [Example 32, N′-(5—Bromo-2-cyano-4-pyrimidinyl)-4-({4-[(4-methyl-1-piperazinyl)carbonyl]-1-piperidinyl}methyl)-N′-(tetrahydro-2H-pyran-4-yl)benzohydrazide trifluoroacetate], the IC50 in test [2] was less than 1 nM; in test [4], less than 17 nM; in test [3], 2.5 to 15 nM.

With `CN1CCCC(CN2CCN(Cc3ccc(C(=O)NN(c4nc(C#N)ncc4Br)C4CCOCC4)cc3)CC2)C1` (stereo not drawn) [Example 31, N′-(5—Bromo-2-cyano-4-pyrimidinyl)-4-({4-[(1-methyl-3-piperidinyl)methyl]-1-piperazinyl}methyl)-N′-(tetrahydro-2H-pyran-4-yl)benzohydrazide trifluoroacetate], the IC50 was less than 1 nM in test [2], less than 17 nM in test [4] and 15 to 150 nM in test [3].
